# Laboratory results published in patent US20240238423A9, “TETRAHYDROISOQUINOLINE HETEROBIFUNCTIONAL BCL-XL DEGRADERS” (Treeline Biosciences, Inc., priority 2022, published 2024).
# Read-outs that look alike come from different tables or passages of the source.
# Biological target: T1, Human BCL-XL protein (N-terminal HiBiT tagged BCL-XL in HT1080 cells) (Homo sapiens, UniProt Q07817)
# T1 construct: expressed in transfected cells; host or cells: HT-1080 (ATCC CCL-121), stably transduced with lentivirus pLV-UBC-N-HiBiT-BCL-XL-PGK-puro and selected with puromycin
# T1 sequence (Q07817 whole entry): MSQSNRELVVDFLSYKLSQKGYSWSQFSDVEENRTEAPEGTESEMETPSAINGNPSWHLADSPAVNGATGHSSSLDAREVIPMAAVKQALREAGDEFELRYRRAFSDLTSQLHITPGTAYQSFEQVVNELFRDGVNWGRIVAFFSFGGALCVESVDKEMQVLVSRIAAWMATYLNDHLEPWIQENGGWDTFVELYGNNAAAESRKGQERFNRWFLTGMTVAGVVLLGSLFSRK
# Test: HiBiT based degradation assay
# Assay type: cell-based
# Settings: HT1080 cells expressing HiBiT-BCL-XL; for Ymin (6 h) / Ymin (24 h): BCL-XL degradation normalized with DMSO control; for DC50: BCL-XL degradation
# Procedure, shortened: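 This HiBiT degradation assay measured loss of BCL-XL in HT1080 cells that stably express an N-terminal HiBiT-BCL-XL fusion delivered by lentivirus. Cells were added to compound-spotted 384-well plates, and luminescence was read on a PHERAstar FSX reader. Signal was expressed relative to DMSO controls, curves were fitted by four-parameter logistic regression, and for hook-shaped curves the Ymin point served as the bottom plateau when calculating EC50.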
Compound,Ymin (6 h),Ymin (24 h),"DC50 (6 h, read-out: EC50 (6 h)) [nM]","DC50 (24 h, read-out: EC50 (24 h)) [nM]"
"Cc1c(OCCCN2CCN(CCOc3ccc4c(C5CCC(=O)NC5=O)nn(C)c4c3)CC2)cccc1-c1ccc(N2CCc3cccc(C(=O)Nc4nc5ccccc5s4)c3C2)nc1C(=O)O (stereo not shown) [Compound 136, 6-(8-(benzo[d]thiazol-2-ylcarbamoyl)-3,4-dihydroisoquinolin-2(1H)-yl)-3-(3-(3-(4-(2-((3-(2,6-dioxopiperidin-3-yl)-1-methyl-1H-indazol-6-yl)oxy)ethyl)piperazin-1-yl)propoxy)-2-methylphenyl)picolinic acid]",B (50% ≤ Ymin < 70%),B (50% ≤ Ymin < 70%),100 to 1000,< 100
"Cc1c(OCCN2CCN(CC(=O)Nc3ccc4c(C5CCC(=O)NC5=O)nn(C)c4c3)CC2)cccc1-c1ccc(N2CCc3cccc(C(=O)Nc4nc5ccccc5s4)c3C2)nc1C(=O)O (stereo not shown) [Compound 103, 6-[8-(1,3-benzothiazol-2-ylcarbamoyl)-3,4-dihydro-1H-isoquinolin-2-yl]-3-[3-[2-[4-[2-[[3-(2,6-dioxo-3-piperidyl)-1-methyl-indazol-6-yl]amino]-2-oxo-ethyl]piperazin-1-yl]ethoxy]-2-methyl-phenyl]pyridine-2-carboxylic acid]",A (Ymin < 50%),A (Ymin < 50%),< 100,< 100
"Cc1c(O[C@H]2CC[C@H](CC(=O)N3CCN(c4ccc5c(C6CCC(=O)NC6=O)nn(C)c5c4)CC3)CC2)cccc1-c1ccc(N2CCc3cccc(C(=O)Nc4nc5ccccc5s4)c3C2)nc1C(=O)O (stereo partly shown) [Compound 176a, 6-(8-(benzo[d]thiazol-2-ylcarbamoyl)-3,4-dihydroisoquinolin-2(1H)-yl)-3-(3-(((1r,4r)-4-(2-(4-(3-(2,6-dioxopiperidin-3-yl)-1-methyl-1H-indazol-6-yl)piperazin-1-yl)-2-oxoethyl)cyclohexyl)oxy)-2-methylphenyl)picolinic acid]",–,B (50% ≤ Ymin < 70%),–,< 100
"Cc1c(OCCCC2CCN(CC(=O)Nc3ccc4c(N5CCC(=O)NC5=O)nn(C)c4c3)CC2)cccc1-c1ccc(N2CCc3cccc(C(=O)Nc4nc5ccccc5s4)c3C2)nc1C(=O)O [Compound 317, 6-(8-(benzo[d]thiazol-2-ylcarbamoyl)-3,4-dihydroisoquinolin-2(1H)-yl)-3-(3-(3-(1-(2-((3-(2,4-dioxotetrahydropyrimidin-1(2H)-yl)-1-methyl-1H-indazol-6-yl)amino)-2-oxoethyl)piperidin-4-yl)propoxy)-2-methylphenyl)picolinic acid]",–,B (50% ≤ Ymin < 70%),–,< 100
"Cc1c(OCCC[C@@H]2CCN(CC(=O)Nc3cccc4c(C5CCC(=O)NC5=O)nn(C)c34)C2)cccc1-c1ccc(N2CCc3cccc(C(=O)Nc4nc5ccccc5s4)c3C2)nc1C(=O)O (stereo partly drawn) [Compound 240a, 6-[8-(1,3-benzothiazol-2-ylcarbamoyl)-3,4-dihydro-1H-isoquinolin-2-yl]-3-[3-[3-[(3R)-1-[2-[[3-(2,6-dioxo-3-piperidyl)-1-methyl-indazol-7-yl]amino]-2-oxo-ethyl]pyrrolidin-3-yl]propoxy]-2-methyl-phenyl]pyridine-2-carboxylic acid]",–,B (50% ≤ Ymin < 70%),–,< 100
"Cc1c(O[C@H]2CC[C@H](CCCN3CCN(c4ccc5c(N6CCC(=O)NC6=O)nn(C)c5c4)CC3)CC2)cccc1-c1ccc(N2CCc3cccc(C(=O)Nc4nc5ccccc5s4)c3C2)nc1C(=O)O [Compound 316a, 6-(8-(benzo[d]thiazol-2-ylcarbamoyl)-3,4-dihydroisoquinolin-2(1H)-yl)-3-(3-(((1s,4r)-4-(3-(4-(3-(2,4-dioxotetrahydropyrimidin-1(2H)-yl)-1-methyl-1H-indazol-6-yl)piperazin-1-yl)propyl)cyclohexyl)oxy)-2-methylphenyl)picolinic acid]",–,A (Ymin < 50%),–,< 100
"Cc1c(OCC[C@@H]2CCC3(CCN(CC(=O)Nc4ccc5c(C6CCC(=O)NC6=O)nn(C)c5c4)CC3)C2)cccc1-c1ccc(N2CCc3cccc(C(=O)Nc4nc5ccccc5s4)c3C2)nc1C(=O)O (single isomer, unassigned) [Compound 272b, 6-(8-(benzo[d]thiazol-2-ylcarbamoyl)-3,4-dihydro-isoquinolin-2(1 h)-yl)-3-(3-(2-((2r)-8-(2-((3-(2,6-dioxopiperidin-3-yl)-1-methyl-1 h-indazol-6-yl)amino)-2-oxoethyl)-8-azaspiro[4.5]decan-2-yl)ethoxy)-2-methylphenyl)picolinic acid]",–,A (Ymin < 50%),–,< 100
"Cc1c(O[C@H]2CC[C@H](CCCN3CCN(c4ccc5c(C6CCC(=O)NC6=O)nn(C)c5c4)C[C@H]3C(F)(F)F)CC2)cccc1-c1ccc(N2CCc3cccc(C(=O)Nc4nc5ccccc5s4)c3C2)nc1C(=O)O (stereo partly drawn) [Compound 347b, 6-(8-(benzo[d]thiazol-2-ylcarbamoyl)-3,4-dihydroisoquinolin-2(1H)-yl)-3-(3-(((1r,4r)-4-(3-((2S)-4-(3-(2,6-dioxopiperidin-3-yl)-1-methyl-1H-indazol-6-yl)-2-(trifluoromethyl)piperazin-1-yl)propyl)cyclohexyl)oxy)-2-methylphenyl)picolinic acid]",–,A (Ymin < 50%),–,< 100
"Cc1c(O[C@H]2CC[C@H](CCCN3CCN(c4ccc5c(C6CCC(=O)NC6=O)nn(C)c5c4)CC3(C)C)CC2)cccc1-c1ccc(N2CCc3cccc(C(=O)Nc4nc5ccccc5s4)c3C2)nc1C(=O)O (stereo partly shown) [Compound 336a, 6-(8-(benzo[d]thiazol-2-ylcarbamoyl)-3,4-dihydroisoquinolin-2(1H)-yl)-3-(3-(((1s,4r)-4-(3-(4-(3-(2,6-dioxopiperidin-3-yl)-1-methyl-1H-indazol-6-yl)-2,2-dimethylpiperazin-1-yl)propyl)cyclohexyl)oxy)-2-methylphenyl)picolinic acid]",–,A (Ymin < 50%),–,< 100
"Cc1c(OCCCN2CCN(CC(=O)Nc3cccc4c(C5CCC(=O)NC5=O)nn(C)c34)CC2)cccc1-c1ccc(N2CCc3cccc(C(=O)Nc4nc5ccccc5s4)c3C2)nc1C(=O)O (stereo not shown) [Compound 105, 6-[8-(1,3-benzothiazol-2-ylcarbamoyl)-3,4-dihydro-1H-isoquinolin-2-yl]-3-[3-[3-[4-[2-[[3-(2,6-dioxo-3-piperidyl)-1-methyl-indazol-7-yl]amino]-2-oxo-ethyl]piperazin-1-yl]propoxy]-2-methyl-phenyl]pyridine-2-carboxylic acid]",B (50% ≤ Ymin < 70%),B (50% ≤ Ymin < 70%),< 100,100 to 1000
"Cc1c(O[C@H]2CC[C@H](CCCN3CCN(c4cccc5c(C6CCC(=O)NC6=O)nn(C)c45)C[C@@H]3C)CC2)cccc1-c1ccc(N2CCc3cccc(C(=O)Nc4nc5ccccc5s4)c3C2)nc1C(=O)O (stereo partly drawn) [Compound 275b, 6-(8-(benzo[d]thiazol-2-ylcarbamoyl)-3,4-dihydroisoquinolin-2(1H)-yl)-3-(3-(((1R,4r)-4-(3-((2S)-4-(3-(2,6-dioxopiperidin-3-yl)-1-methyl-1H-indazol-7-yl)-2-methylpiperazin-1-yl)propyl)cyclohexyl)oxy)-2-methylphenyl)picolinic acid]",–,C (Ymin ≥ 70%),–,< 100
"Cc1c(OCC[C@@H]2CC23CCN(CC(=O)Nc2ccc4c(C5CCC(=O)NC5=O)nn(C)c4c2)CC3)cccc1-c1ccc(N2CCc3cccc(C(=O)Nc4nc5ccccc5s4)c3C2)nc1C(=O)O (single isomer, unassigned) [Compound 289a]",–,A (Ymin < 50%),–,< 100
"Cc1c(OCCCN2C[C@@H](C)N(CC(=O)Nc3cccc4c(C5CCC(=O)NC5=O)nn(C)c34)[C@@H](C)C2)cccc1-c1ccc(N2CCc3cccc(C(=O)Nc4nc5ccccc5s4)c3C2)nc1C(=O)O (stereo partly drawn) [Compound 117a, 6-[8-(1,3-benzothiazol-2-ylcarbamoyl)-3,4-dihydro-1H-isoquinolin-2-yl]-3-[3-[3-[(3S,5R)-4-[2-[[3-(2,6-dioxo-3-piperidyl)-1-methyl-indazol-7-yl]amino]-2-oxo-ethyl]-3,5-dimethyl-piperazin-1-yl]propoxy]-2-methyl-phenyl]pyridine-2-carboxylic acid]",B (50% ≤ Ymin < 70%),B (50% ≤ Ymin < 70%),< 100,< 100
"Cn1nc(C2CCC(=O)NC2=O)c2ccc(N3CCN(CCCC[C@H]4CC[C@H](Oc5cccc(-c6ccc(N7CCc8cccc(C(=O)Nc9nc%10ccccc%10s9)c8C7)nc6C(=O)O)c5C(F)(F)F)CC4)CC3)cc21 (stereo partly shown) [Compound 319a, 6-(8-(benzo[d]thiazol-2-ylcarbamoyl)-3,4-dihydroisoquinolin-2(1H)-yl)-3-(3-(((1s,4r)-4-(4-(4-(3-(2,6-dioxopiperidin-3-yl)-1-methyl-1H-indazol-6-yl)piperazin-1-yl)butyl)cyclohexyl)oxy)-2-(trifluoromethyl)phenyl)picolinic acid]",–,A (Ymin < 50%),–,< 100
"Cc1c(OCCCN2CCC(CC(=O)Nc3ccc4c(C5CCC(=O)NC5=O)nn(C)c4c3)CC2)cccc1-c1ccc(N2CCc3cccc(C(=O)Nc4nc5ccccc5s4)c3C2)nc1C(=O)O (stereo not shown) [Compound 120, 6-[8-(1,3-benzothiazol-2-ylcarbamoyl)-3,4-dihydro-1H-isoquinolin-2-yl]-3-[3-[3-[4-[2-[[3-(2,6-dioxo-3-piperidyl)-1-methyl-indazol-6-yl]amino]-2-oxo-ethyl]-1-piperidyl]propoxy]-2-methyl-phenyl]pyridine-2-carboxylic acid]",B (50% ≤ Ymin < 70%),B (50% ≤ Ymin < 70%),< 100,< 100
